# Measurements reported in patent US9943524B2, “Use of alkaloid in preparing pharmaceutical compositions for preventing or treating pulmonary fibrosis” (China Pharmaceutical University, priority 2014, dated 2018).
# Assays:
# [1] = cited from earlier work
# [2] = test system: pulmonary fibrosis mice induced by bleomycin; assay: Determination of mice mortality (Embodiment 4); assay type: in vivo, C57BL/6 mice
# Experimental: (§1) Female C57BL/6 mice (eight-week-old) are established for models after 7 days, the time is set for the mice to adapt to the environment. After fasts for overnight, the mice are anaesthetized by 3% chloral hydrate and fixed. Sterilize and incise neck skin longitudinally as little injury as possible. Split fascia and muscle with tweezers longitudinally and expose the windpipe. Then, about 35 μl (3.5 mg/kg) bleomycin are injected into windpipe with microinjector. Put the mice upright rapidly and rotate the mice for 3˜5 minutes, so that bleomycin is able to enter into the pulmones uniformly. Observe the breathing of mice. Sterilize neck injury with 75% alcohol tampon and stitch the wound, then 1 drop or 2 drops of benzylpenicillin injection is/are dripped into the suture. Put the mice back into dry and clean cages, and feed them normally after waking up. Operations are done on operating table at about […]. Physiological saline using in injection is injected into windpipe of sham operation group.
# (§2) Model animals are divided into prevention groups and treatment groups, then drugs are given to the two groups respectively. According to internationally methods of drug administration, drugs are given continuously to the prevention groups by means of intragastric administration from the second day after successfully establishing model to the 14th day, and drugs are given continuously to treatment groups by means of intragastric administration from the 8th day after successfully establishing model to the 21th day. Groups and dosage regimen are shown in tab.1.
# From the 0th day (the day when the model is established) to 14th day, drugs are given continuously to prevention groups. From the 8th day after successfully establishing model to 21th day, drugs are given continuously to treatment groups. Statistical analysis of death of animals in each group is carried on every day and the survival rate of animals in each group is calculated. Results are shown in tab.2.
# [3] = test system: TGF-β1; conditions: cited from earlier work
# [4] = test system: pulmonary fibrosis mice induced by bleomycin; assay: Content determination of hydroxyproline in lung tissue (Embodiment 4); assay type: in vivo, C57BL/6 mice; conditions: 30 mg/kg and 60 mg/kg, prevention groups and treatment groups (FIG. 7); lower dose slightly better
# Experimental: as §1, §2
# Hydroxyproline mainly exists in collagen protein, but there is only a very small amounts in elastin proteins and it cannot found in other proteins. Therefore the content of collagen protein can be indicated by measuring the content of hydroxyproline, so as to evaluate the degree of pulmonary fibrosis. Method of test kit (which is purchased from Nanjing Jiancheng Biological Technology Co., Ltd.) according to specification is used in determination of hydroxyproline. Results can be seen in FIG. 7.
# [5] = test system: pulmonary fibrosis mice induced by bleomycin; assay: Masson stained pathological evaluation and imaging analysis of collagen (Embodiment 4); assay type: in vivo, C57BL/6 mice
# Experimental: as §1, §2
# Masson staining is a method aiming at specific staining of fibrillar collagen. After the last intragastric administration, the mice are anaesthetized and killed to collect the lung tissue. Immerse the left lobule in 10% formalin, and embed it by paraffin after being fixed, then is cut it into slices to observe the collagen deposition by Masson staining. Semi quantitative analysis is made by using Image-Pro Plus6.0. Integrated optical density (IOD) of collagen in each visual field is measured after Masson staining. 5 samples are studied in each group and 5 visual fields are picked out from each group. Statistics analysis is made by calculating mean value which is considered as relative amount of collagen in each group.
# [6] = test system: pulmonary fibrosis mice induced by bleomycin; assay: Detection of the mice lung index (Embodiment 4); assay type: in vivo, C57BL/6 mice; conditions: 30 and 60 mg/kg, prevention groups and treatment groups, versus model group (FIG. 2); lower dose better in prevention groups
# Experimental: as §1, §2
# After the last intragastric administration, the mice are killed to strip and weigh the lung, and the lung index is the lung weight divided by mouse weight (FIG. 2). […] In general, the 3 compounds have better effect in decreasing the mortality of mice than the positive drug pirfenidone.
# [7] = test system: pulmonary fibrosis mice induced by bleomycin; assay: Activity of 8 alkaloids and pentoxyverine against pulmonary fibrosis in mice (Embodiment 3); assay type: in vivo, C57BL/6 mice; conditions: intragastric from first day after model to 21th day; alkaloids and pentoxyverine 30 mg/kg (FIG. 1B, 1C)
# Experimental: as §1
# Experimental mice are randomly divided into 12 groups: 10 mice in model group, 10 mice in pentoxyverine group, and 5 mice in any other group. Group 1 is sham operation group, group 2 is model group, group 3 is pentoxyverine group, group 4 is positive drug pirfenidone group, groups 5-12 are compounds I-VIII administration group respectively. Models of groups 2-12 are established by using bleomycin with the same method used in embodiment 2. From the first day after successfully establishing model, 30 mg/kg pentoxyverine and 300 mg/kg pirfenidone are given to group 3 and group 4 by means of intragastric administration respectively. 30 mg/kg compounds I-VIII are given to groups 5-12 also by means of intragastric administration respectively. Besides, same doses of solvent are given to sham operation group and model group until the 21th day. After the last intragastric administration, the mice are killed to collect the lung tissue, and the right lobule is used for determining the content of hydroxyproline, while the left lobule is used for preparing pathological sections.
# [8] = test system: TGF-β1; assay: ELISA content determination of TGF-β1 in mice lung tissue (Embodiment 4); assay type: in vivo, C57BL/6 mice; conditions: 30 mg/kg and 60 mg/kg, prevention groups and treatment groups, versus model group (FIG. 8); lower dose more effective
# Experimental: as §1, §2
# TGF-β1 is a universally recognized strong pro-fibrotic cytokine. It can stimulate the cells to synthesize and secrete extracellular matrix as well as exchange the activity of matrix-degrading enzyme component and directly increase the deposition of ECM. The progress of pulmonary fibrosis can be slowed down by decreasing the content of TGF-β1 in lung tissue. Elisa test kit (which is purchased from Shanghai Excell Biological Technology Co., Ltd.) according to specification is used in the determination of TGF-β1 in mice lung tissue. Results can be seen in FIG. 8.
# [9] = test system: cough of guinea pig induced by citric acid; conditions: cited from earlier work
# [10] = test system: pulmonary fibrosis mice induced by bleomycin; assay: HE stained pathological evaluation and inflammation scores (Embodiment 4); assay type: in vivo, C57BL/6 mice
# Experimental: as §1, §2
# After the last intragastric administration, the mice are anaesthetized and killed to collect the lung tissue. Immerse the left lobule in 10% formalin, and embed it by paraffin after being fixed, then cut it into slices to observe the pathological changes by HE staining. As is shown in FIG. 3, structures of lobules of sham operation group are normal and the alveolar walls are complete without inflammation and fibrosis pathological changes. Obvious inflammation injury and masses of tissue begin to appear in lung of mice in model group, then the normal lung tissue disappears and alveolar is blocked. […] The groups with lower dose (30 mg/kg) of the 3 compounds show better effect than the groups with higher dose. The pulmonary inflammation disappears and alveolar structure is clear in groups with lower dose.
# Inflammatory classification semi quantitative statistics analysis is made according to results of HE staining. Grade 0 represents normal tissue or minimal inflammation change. Grade 1 (+) represents mild to moderate inflammation change, and lung tissue without obvious damage. Grade 2 (++) represents moderate to severe inflammation injury, and alveolar septum is thickened to form masses of tissue, or lung tissue with damage caused by partial area inflammation. Grade 3 (+++) represents severe inflammation injury, and structure of restricted regions in lung tissue is severely damaged, thus resulting in obliteration. […] The groups with lower dose show better effect than the groups with higher dose. In general, the 3 compounds have better effect in decreasing the pulmonary inflammation than the positive drug pirfenidone.
# [11] = test system: cough reflex pathway; conditions: in vivo; cited from earlier work
compound,measurement,setting,value
"Cc1ccc(=O)n(-c2ccccc2)c1 [Pirfenidone, pirfenidone, reference compound]",clinical side effects,[1],photosensitization
same,Survival rate,"[2]; prevention groups, 300 mg/kg intragastric to the 14th day",70%
same,Mortality (number of dead animals),"[2]; prevention groups, 300 mg/kg intragastric to the 14th day, 10 animals",3
same,Survival rate,"[2]; treatment groups, 300 mg/kg intragastric from the 8th to the 21th day",67%
same,Mortality (number of dead animals),"[2]; treatment groups, 300 mg/kg intragastric from the 8th to the 21th day, 18 animals",6
same,inhibition of pro-fibrogenic factors,[3],can inhibit the pro-fibrogenic factors such as TGF-β1
"CC[C@@H]1[C@H]2CCCCN3[C@H]2[C@@H](C[C@H]3[C@@H]2C[C@H](C)C(=O)O2)[C@H]2[C@@H]1OC(=O)[C@H]2C [Compound VII, Neotuberostemonine]",content of hydroxyproline in lung tissue,[4],effectively decrease the content of hydroxyproline
same,"collagen deposition (Masson staining, integrated optical density)","[5]; 30, 60 mg/kg, prevention and treatment groups (FIG. 5, 6), lower dose better in prevention, higher dose better in treatment",significantly decrease collagen deposition
same,"effect in decreasing the collagen deposition, comparison among compounds","[5]; in general, Masson staining",slightly better than that of compound VIII
same,lung index (lung weight divided by mouse weight),[6],significantly decrease the lung index
same,"pulmonary inflammation, injury and fibrosis in HE and Masson stained pathological sections",[7],recover to nearly normal structure
same,content of TGF-β1 in lung tissue (ELISA),[8],effectively decrease the content of TGF-β1
same,antitussive effect,[9],very good antitussive effect
same,Survival rate,"[2]; prevention groups, 30 mg/kg intragastric to the 14th day",100%
same,Mortality (number of dead animals),"[2]; prevention groups, 30 mg/kg intragastric to the 14th day, 10 animals",0
same,Survival rate,"[2]; prevention groups, 60 mg/kg intragastric to the 14th day",80%
same,Mortality (number of dead animals),"[2]; prevention groups, 60 mg/kg intragastric to the 14th day, 10 animals",2
same,"protective effect on model mice (mortality), comparison among compounds","[2]; prevention groups, lower dose (30 mg/kg) better",more effective than compound VIII
same,Survival rate,"[2]; treatment groups, 30 mg/kg intragastric from the 8th to the 21th day",89%
same,Mortality (number of dead animals),"[2]; treatment groups, 30 mg/kg intragastric from the 8th to the 21th day, 18 animals",2
same,Survival rate,"[2]; treatment groups, 60 mg/kg intragastric from the 8th to the 21th day",78%
same,Mortality (number of dead animals),"[2]; treatment groups, 60 mg/kg intragastric from the 8th to the 21th day, 18 animals",4
same,"lung tissue inflammation scores (HE stained, grade 0-3)","[10]; 30, 60 mg/kg, prevention and treatment groups (FIG. 4), lower dose better",significantly decrease the pulmonary inflammation
same,"pulmonary inflammation and injury, HE stained pathological changes","[10]; prevention groups and treatment groups (FIG. 3), lower dose (30 mg/kg) better than higher dose",significantly alleviate the pulmonary inflammation
same,"antitussive activities, comparison among stemona tuberosa alkaloids",[11],similar
